The test system of experiment [1] is C2C12 myotubes. Description: C2C12 myotube diameter. Format: cell-based. An excerpt:
C2C12 cells can be obtained from the American Type Tissue Culture Bank and propagated in standard growth media containing 10% horse serum. When cells reached 70% confluency the media is changed to differentiation media containing 2% horse serum. Three days after start of differentiation multinucleated myotubes should be present, with visible striations, indicating differentiation. hGH can be used as a positive control for activating the IGF-1 receptor, or alternatively, combined with a PTP1B inhibitor to assess synergistic or additive effects. Consequently, PTP1B inhibitors and/or hGH can be added to the media for various times.
Myotube Diameter Myotube diameter can be assessed 24 hours after addition of PTP1B inhibitor and/or hGH to myotube media. Cells are washed in saline and fixed in gluteraldehyde. Images can be obtained on an inverted microscope using the green fluorescent channel to visualize the auto-fluorescence induced by the gluteraldehyde fixation. Images are printed out at standard magnification and the sixty largest myotubes measured at their largest diameter (as previously published). The fifty largest myotubes in each group can be statistically compared using the Kruskal-Wallis One Way Analysis on Ranks. Differences are considered significant if p<0.05 and designated by an asterisk in FIG. 1. […]

In experiment [2] the test system is AKT phosphorylation. The following applies: hGH treatment of C2C12; cited from earlier work.

Consider “IGF1: human insulin-like growth factor1 or IGF1, however formulated or stabilized”, for which the myotube hypertrophy entry in experiment [1] (IGF1 alone added to C2C12 myotubes media at 10 ng/ml) is given as “significantly hypertrophied”. As to “hGH: Human Growth Hormone, can be purchased from Bachem H-3148”, the C2C12 myotube diameter result in experiment [1] (hGH alone) is reported as “significant increase”. Also, in experiment [2], the AKT phosphorylation result is given as “cause AKT phosphorylation”.
